Assay results published in ChEMBL document CHEMBL4507276 (2021).

Legend:
[1] = biological target: T1, 5-hydroxytryptamine receptor 3A (Homo sapiens) (UniProt P46098); test: 5HT3/H Cerep selectivity data (BI); details: Compound concentration 20.0 uM
T1 sequence (whole entry): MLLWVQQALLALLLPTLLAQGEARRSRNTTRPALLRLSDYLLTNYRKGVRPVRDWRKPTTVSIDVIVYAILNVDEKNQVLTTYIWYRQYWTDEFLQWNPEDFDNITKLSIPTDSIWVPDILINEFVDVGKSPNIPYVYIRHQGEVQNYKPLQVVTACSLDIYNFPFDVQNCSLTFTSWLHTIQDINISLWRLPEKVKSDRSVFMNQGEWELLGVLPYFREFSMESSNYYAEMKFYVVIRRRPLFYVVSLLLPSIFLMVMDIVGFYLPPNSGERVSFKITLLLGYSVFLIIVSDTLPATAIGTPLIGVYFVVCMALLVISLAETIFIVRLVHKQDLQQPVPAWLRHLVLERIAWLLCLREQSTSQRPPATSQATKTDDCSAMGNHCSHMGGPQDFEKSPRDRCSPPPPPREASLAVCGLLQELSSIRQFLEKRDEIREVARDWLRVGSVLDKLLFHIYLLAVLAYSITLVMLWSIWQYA

[2] = biological target: Kappa-type opioid receptor (Homo sapiens) (UniProt P41145); test: KAPPA/HU Eurofins-Panlabs selectivity data (BI); details: Compound concentration 10.0 uM
Sequence of Kappa-type opioid receptor (Homo sapiens) (P41145 whole entry): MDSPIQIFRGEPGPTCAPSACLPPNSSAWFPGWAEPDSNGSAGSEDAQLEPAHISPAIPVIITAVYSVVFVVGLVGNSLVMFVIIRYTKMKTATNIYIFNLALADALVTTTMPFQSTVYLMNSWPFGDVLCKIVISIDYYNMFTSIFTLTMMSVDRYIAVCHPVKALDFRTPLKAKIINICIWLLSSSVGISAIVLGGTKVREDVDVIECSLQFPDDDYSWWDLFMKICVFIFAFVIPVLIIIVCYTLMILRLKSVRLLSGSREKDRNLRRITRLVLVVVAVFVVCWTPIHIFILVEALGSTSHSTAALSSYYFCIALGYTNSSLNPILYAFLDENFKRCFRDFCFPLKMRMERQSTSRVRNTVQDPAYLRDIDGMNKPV

[3] = biological target: T2, Cytoplasmic tyrosine-protein kinase BMX (Homo sapiens) (UniProt P51813); test: BMX Invitrogen selectivity data (BI); details: Compound concentration 3.0 uM
T2 sequence (whole entry): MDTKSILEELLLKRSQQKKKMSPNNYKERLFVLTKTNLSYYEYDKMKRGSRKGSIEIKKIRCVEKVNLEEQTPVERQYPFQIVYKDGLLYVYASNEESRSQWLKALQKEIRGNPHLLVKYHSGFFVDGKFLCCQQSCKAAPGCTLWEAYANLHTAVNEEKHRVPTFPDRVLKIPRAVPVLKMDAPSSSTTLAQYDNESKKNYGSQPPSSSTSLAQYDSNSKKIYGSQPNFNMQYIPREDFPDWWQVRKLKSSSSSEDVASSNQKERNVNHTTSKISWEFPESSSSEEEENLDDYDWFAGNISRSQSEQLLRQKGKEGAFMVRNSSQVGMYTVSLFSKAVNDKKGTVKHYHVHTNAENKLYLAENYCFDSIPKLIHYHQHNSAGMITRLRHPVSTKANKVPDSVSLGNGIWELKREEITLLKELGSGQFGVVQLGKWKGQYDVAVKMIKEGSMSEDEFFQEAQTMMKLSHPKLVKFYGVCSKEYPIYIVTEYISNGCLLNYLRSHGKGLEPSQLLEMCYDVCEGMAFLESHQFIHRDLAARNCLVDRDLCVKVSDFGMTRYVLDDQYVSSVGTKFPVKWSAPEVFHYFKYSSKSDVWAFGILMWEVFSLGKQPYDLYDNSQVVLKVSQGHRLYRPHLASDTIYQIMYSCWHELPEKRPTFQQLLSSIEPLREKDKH

[4] = biological target: Tyrosine-protein kinase CSK (Homo sapiens) (UniProt P41240); test: CSK Invitrogen selectivity data (BI); details: Compound concentration 3.0 uM
Sequence of Tyrosine-protein kinase CSK (Homo sapiens) (P41240 2-450 limits assumed): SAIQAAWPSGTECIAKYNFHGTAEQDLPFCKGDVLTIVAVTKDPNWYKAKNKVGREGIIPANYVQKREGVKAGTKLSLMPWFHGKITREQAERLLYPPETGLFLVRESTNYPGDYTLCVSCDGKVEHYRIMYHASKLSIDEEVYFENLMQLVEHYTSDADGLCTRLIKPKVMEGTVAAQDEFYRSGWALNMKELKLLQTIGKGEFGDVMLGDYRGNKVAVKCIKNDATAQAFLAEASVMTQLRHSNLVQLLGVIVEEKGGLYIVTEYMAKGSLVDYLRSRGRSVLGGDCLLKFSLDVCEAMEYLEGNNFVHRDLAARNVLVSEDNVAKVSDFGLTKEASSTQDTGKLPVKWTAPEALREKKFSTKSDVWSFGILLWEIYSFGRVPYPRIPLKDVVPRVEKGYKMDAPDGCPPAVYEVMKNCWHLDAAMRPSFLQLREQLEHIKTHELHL

[5] = biological target: Ephrin type-A receptor 2 (Homo sapiens) (UniProt P29317); test: EPHA2 Invitrogen selectivity data (BI); details: Compound concentration 3.0 uM
Sequence of Ephrin type-A receptor 2 (Homo sapiens) (P29317 whole entry): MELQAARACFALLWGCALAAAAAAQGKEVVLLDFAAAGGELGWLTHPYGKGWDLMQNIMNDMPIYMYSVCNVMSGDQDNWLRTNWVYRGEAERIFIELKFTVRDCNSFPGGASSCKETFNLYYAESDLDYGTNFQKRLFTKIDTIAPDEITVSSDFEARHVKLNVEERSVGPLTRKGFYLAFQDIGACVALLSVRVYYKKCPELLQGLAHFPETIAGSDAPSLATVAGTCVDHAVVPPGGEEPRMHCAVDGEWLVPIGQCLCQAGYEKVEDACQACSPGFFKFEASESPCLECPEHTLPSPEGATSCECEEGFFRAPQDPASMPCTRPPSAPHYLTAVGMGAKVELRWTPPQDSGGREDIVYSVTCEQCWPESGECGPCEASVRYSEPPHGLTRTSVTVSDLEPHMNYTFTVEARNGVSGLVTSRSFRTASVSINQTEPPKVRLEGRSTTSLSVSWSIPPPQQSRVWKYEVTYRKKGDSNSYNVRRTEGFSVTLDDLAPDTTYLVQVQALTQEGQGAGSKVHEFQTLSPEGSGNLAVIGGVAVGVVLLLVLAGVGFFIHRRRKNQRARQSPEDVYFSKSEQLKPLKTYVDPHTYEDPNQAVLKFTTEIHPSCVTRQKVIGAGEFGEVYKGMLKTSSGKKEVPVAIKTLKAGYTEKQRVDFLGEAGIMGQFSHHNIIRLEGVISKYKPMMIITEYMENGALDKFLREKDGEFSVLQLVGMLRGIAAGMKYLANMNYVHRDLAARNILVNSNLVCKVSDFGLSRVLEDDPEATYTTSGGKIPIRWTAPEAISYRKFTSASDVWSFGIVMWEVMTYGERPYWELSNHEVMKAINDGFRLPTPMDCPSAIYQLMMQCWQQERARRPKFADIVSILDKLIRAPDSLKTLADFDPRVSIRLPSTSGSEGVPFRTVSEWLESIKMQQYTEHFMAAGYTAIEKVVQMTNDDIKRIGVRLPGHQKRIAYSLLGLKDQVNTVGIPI

[6] = biological target: Ephrin type-A receptor 7 (Homo sapiens) (UniProt Q15375); test: EPHA7 Invitrogen selectivity data (BI); details: Compound concentration 3.0 uM
Sequence of Ephrin type-A receptor 7 (Homo sapiens) (Q15375 28-998 limits assumed): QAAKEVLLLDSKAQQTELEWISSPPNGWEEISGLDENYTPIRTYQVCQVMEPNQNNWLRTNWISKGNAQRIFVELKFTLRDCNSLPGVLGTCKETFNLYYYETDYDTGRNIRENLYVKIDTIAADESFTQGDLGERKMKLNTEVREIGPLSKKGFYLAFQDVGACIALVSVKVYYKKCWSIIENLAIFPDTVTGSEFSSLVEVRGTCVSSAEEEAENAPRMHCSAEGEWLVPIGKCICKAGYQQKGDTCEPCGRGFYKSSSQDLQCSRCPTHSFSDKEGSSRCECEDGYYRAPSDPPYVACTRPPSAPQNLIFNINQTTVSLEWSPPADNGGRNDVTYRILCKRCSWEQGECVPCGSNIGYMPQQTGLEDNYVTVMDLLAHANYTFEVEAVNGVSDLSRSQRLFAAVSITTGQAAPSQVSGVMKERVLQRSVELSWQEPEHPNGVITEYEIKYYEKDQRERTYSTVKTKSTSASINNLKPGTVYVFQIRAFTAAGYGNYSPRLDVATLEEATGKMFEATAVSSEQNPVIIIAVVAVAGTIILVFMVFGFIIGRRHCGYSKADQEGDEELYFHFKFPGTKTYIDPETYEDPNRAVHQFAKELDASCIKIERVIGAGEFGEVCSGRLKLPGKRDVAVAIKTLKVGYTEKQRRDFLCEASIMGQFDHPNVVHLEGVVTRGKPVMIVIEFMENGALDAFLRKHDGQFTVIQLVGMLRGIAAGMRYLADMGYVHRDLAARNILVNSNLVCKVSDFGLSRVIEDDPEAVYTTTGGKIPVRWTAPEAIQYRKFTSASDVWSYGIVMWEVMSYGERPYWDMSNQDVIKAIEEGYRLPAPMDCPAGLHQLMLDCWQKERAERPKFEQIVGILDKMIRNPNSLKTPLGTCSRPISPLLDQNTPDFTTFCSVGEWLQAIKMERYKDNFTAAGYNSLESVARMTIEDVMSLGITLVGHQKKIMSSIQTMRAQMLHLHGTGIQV

[7] = test system: Tyrosine-protein kinase JAK2 (Homo sapiens), O60674 [V617F]; test: JAK2 V617F Invitrogen selectivity data (BI); details: Compound concentration 3.0 uM
Sequence of Tyrosine-protein kinase JAK2 (Homo sapiens), O60674 [V617F] (O60674 whole entry V617F): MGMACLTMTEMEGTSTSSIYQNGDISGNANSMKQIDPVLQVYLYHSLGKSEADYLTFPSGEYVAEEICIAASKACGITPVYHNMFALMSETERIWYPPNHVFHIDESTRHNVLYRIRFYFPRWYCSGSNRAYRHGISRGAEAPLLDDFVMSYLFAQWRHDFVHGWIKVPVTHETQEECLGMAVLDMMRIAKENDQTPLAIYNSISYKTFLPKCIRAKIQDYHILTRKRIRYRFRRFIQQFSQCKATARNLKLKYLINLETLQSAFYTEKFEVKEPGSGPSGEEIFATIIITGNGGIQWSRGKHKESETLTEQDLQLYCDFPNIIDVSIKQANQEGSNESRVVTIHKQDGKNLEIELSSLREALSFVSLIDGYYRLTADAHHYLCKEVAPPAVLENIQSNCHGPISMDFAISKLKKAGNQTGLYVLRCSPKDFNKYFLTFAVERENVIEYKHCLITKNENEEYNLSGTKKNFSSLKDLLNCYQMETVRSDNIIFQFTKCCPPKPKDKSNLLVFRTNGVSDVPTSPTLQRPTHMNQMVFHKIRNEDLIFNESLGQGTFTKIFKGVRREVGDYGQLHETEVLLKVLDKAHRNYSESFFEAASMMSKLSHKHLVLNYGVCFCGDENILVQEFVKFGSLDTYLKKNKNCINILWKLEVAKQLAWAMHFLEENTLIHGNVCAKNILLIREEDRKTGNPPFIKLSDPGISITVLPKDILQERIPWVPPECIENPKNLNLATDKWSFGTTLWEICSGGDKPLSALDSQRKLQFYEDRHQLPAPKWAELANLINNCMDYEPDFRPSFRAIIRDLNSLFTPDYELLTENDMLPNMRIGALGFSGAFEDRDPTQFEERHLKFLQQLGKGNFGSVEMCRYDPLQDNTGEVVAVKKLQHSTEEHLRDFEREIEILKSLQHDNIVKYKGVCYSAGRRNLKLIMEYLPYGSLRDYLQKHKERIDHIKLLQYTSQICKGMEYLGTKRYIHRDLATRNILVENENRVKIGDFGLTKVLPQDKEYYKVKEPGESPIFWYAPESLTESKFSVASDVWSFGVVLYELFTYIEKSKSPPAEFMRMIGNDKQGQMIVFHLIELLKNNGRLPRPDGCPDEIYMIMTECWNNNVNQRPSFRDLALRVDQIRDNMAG

[8] = biological target: T3, Dual specificity mitogen-activated protein kinase kinase 6 (Homo sapiens) (UniProt P52564); test: MAP2K6_S_T_E Invitrogen selectivity data (BI); details: Compound concentration 3.0 uM
T3 sequence (whole entry): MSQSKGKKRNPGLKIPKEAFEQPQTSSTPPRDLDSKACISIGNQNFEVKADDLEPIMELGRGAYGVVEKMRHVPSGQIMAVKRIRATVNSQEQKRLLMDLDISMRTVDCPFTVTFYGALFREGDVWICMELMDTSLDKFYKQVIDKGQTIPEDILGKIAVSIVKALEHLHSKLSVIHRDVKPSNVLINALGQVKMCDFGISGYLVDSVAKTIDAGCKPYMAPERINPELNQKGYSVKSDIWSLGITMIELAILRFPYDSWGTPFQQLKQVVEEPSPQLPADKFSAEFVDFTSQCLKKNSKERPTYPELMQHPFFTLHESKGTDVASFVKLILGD

[9] = biological target: Mitogen-activated protein kinase 10 (Homo sapiens) (UniProt P53779); test: MAPK10 Invitrogen selectivity data (BI); details: Compound concentration 3.0 uM
Sequence of Mitogen-activated protein kinase 10 (Homo sapiens) (P53779 whole entry): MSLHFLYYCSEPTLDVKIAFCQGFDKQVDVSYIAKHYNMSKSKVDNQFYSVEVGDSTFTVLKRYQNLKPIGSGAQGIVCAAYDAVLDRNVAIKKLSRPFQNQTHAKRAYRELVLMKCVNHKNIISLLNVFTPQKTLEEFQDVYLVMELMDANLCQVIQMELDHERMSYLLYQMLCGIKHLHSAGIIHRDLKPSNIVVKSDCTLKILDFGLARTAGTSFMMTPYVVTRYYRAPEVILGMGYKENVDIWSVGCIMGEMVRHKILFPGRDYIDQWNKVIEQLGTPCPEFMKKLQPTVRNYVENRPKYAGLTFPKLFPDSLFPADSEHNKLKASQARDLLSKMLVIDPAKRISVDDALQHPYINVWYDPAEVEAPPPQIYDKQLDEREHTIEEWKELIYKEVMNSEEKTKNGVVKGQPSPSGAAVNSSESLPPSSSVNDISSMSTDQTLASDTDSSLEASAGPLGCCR

[10] = biological target: Serine/threonine-protein kinase PAK 4 (Homo sapiens) (UniProt O96013); test: PAK4 Invitrogen selectivity data (BI); details: Compound concentration 3.0 uM
Sequence of Serine/threonine-protein kinase PAK 4 (Homo sapiens) (O96013 whole entry, looked up): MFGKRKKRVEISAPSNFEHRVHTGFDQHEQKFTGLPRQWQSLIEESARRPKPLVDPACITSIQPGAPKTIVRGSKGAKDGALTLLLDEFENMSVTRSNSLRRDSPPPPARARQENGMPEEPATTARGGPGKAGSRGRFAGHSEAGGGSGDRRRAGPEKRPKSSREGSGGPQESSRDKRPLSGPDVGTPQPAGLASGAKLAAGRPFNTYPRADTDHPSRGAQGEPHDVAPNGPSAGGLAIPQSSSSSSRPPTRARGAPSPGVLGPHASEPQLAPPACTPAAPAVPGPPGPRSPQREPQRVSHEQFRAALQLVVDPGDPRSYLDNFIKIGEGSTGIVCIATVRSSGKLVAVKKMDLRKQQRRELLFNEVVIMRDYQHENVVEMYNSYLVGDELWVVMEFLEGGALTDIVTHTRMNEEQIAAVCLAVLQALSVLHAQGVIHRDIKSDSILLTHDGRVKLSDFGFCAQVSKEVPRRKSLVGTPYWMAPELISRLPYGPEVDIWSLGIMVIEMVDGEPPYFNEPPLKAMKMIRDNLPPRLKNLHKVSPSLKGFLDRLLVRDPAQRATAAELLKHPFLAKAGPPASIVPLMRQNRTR

[11] = biological target: cAMP-dependent protein kinase catalytic subunit alpha (Homo sapiens) (UniProt P17612); test: PRKACA Invitrogen selectivity data (BI); details: Compound concentration 3.0 uM
[12] = biological target: T4, Serine/threonine-protein kinase TAO3 (Homo sapiens) (UniProt Q9H2K8); test: TAOK3 Invitrogen selectivity data (BI); details: Compound concentration 3.0 uM
T4 sequence (whole entry): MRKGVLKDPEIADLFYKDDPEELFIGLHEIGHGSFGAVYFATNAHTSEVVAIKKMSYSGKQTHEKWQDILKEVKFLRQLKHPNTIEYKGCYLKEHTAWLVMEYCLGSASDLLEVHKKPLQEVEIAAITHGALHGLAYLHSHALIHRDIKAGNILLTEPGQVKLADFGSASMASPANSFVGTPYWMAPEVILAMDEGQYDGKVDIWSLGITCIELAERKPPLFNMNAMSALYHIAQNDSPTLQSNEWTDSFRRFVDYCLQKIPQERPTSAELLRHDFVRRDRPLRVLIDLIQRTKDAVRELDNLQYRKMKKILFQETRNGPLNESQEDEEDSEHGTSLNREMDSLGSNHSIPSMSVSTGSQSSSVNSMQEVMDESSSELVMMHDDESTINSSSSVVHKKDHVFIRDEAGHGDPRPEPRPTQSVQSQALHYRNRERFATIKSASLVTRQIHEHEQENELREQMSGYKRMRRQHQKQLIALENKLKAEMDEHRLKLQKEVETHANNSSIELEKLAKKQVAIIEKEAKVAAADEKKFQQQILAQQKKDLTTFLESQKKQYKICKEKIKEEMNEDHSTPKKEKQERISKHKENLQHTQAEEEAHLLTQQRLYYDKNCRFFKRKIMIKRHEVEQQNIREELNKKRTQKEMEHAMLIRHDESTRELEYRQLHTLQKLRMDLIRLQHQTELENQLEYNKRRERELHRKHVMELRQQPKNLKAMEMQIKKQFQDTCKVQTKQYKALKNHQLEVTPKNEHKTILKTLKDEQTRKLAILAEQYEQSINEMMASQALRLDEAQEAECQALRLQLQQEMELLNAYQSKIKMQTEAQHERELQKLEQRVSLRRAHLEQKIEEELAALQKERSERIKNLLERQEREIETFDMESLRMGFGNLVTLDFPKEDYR

Measured: residual activity

CN(C)C(=O)Cn1cc(-c2nc([C@@](C)(c3ccc(-c4cnc(N)nc4)cc3)C3CC3)no2)cn1 [BI 665915]
inactive: [1] 100% | [2] 102% | [3] 95% | [4] 95% | [5] 99% | [6] 78% | [7] 96% | [8] 100% | [9] 96% | [10] 93.5% | [11] 104% | [12] 104%
